The test system of data set [1] is carcinosarcome de Walker, sarcome S-45 ou sarcome M-1. The class given is in vivo, rats. The conditions noted are these: for régression complète de la tumeur / durée de vie, augmentation par rapport au groupe témoin (sans antibiotiques): ordinary solution i.v., no carrier: daunorubicyne 2 mg/kg/jour for 5 days, carminomicyne 3 x 0,4 mg/kg at 120 h intervals; for durée de vie, augmentation par rapport au groupe témoin (sans antibiotiques): mean; for examens histologiques de divers tissus, surtout du tissu hépatique / hémopoïèse: rat, in vivo, iv. An excerpt:
Dans les essais effectués, le support selon l'invention était porteur d'une préparation anticancéreuse : daunorubicyne, doxorubicyne ou carminomicyne; teneur en fer : 56 à 64 % en masse, le reste étant du carbone; teneur en antibiotique daunorubicyne, doxorubicyne ou carminomycine adsorbé : 2 à 2,5 % en masse.
L'action anticancéreuse a été établie chez des rats et comparée à celle des microsphères connues portant lesdits antibiotiques (taille moyenne des microsphères: 0,2 à 0,5 »m; enveloppe en albumine dénaturée), ainsi qu'à celle de ces médicaments anticancéreux sans support à commande magnétique. Les sujets expérimentaux étaient des rats d'une masse allant de 180 à 220 g. On a réinoculé aux rats (au milieu de la queue) une des […] couches des tumeurs réinoculables des rats; carcinosarcome de Walker, sarcome S-45 ou sarcome M-1 (40 rats pour chaque souche). Le traitement des animaux a commencé lorsque le volume de la teneur avait 1000 mm³.
Le support selon l'invention contenant de la daunorubicyne ou de la carminomicyne a été injecté en une seule fois lentement dans la veine caudale des rats, dose de 40 mg (0,8 mg en calculant en antibiotique, soit 4 mg/kg), sous forme d'une suspension en 1 ml de solution de gélatinol à 8 % pour injections. Dans le cas de la doxorubicyne la dose a été de 12 mg/kg (dose de support : 96 mg en calculant en antibiotique. Avant l'injection, un aimant permanent de samarium-cobalt (6000 Oe) a été fixé sur la queue au niveau de la tumeur. La localisation du support à antibiotique selon l'invention dans le vaisseau au niveau de la tumeur a été contrôlée à l'aide de radiogrammes.
Les microsphères albumineuses ont été injectées en une seule fois, comme décrit ci-dessus, dans une dose de 4 mg/kg (en calculant en daunorubicyne ou en carminomicyne). Les antibiotiques (sans support à commande magnétique) ont été injectés comme suit : la daunorubicyne a été injectée dans la veine caudale des rats avec une dose de 2 mg/kg/jour en solution de gélatinol à 8 % pour des injections pendant 5 jours (une injection par jour); carminomicyne : 0,4 mg/kg 3 fois avec des intervalles de 120 heures; doxorubicyne : en une seule fois avec une dose de 12 mg/kg. Dans le groupe témoin des animaux atteints de tumeur on a injecté dans la veine, 1 ml de solution de gélatinol à 8 % pour injections.

Data set [2] has as its system oedème provoqué par le dextrane. As to the kind of experiment: Anti-oedema activity, dextran-induced tail oedema (plethysmometer). The conditions noted are these: ordinary solution i.v. 20 mg/kg; 1 hour after injection. The class given is in vivo, rats. An excerpt: On a essayé l'activité anti-oedémique du support, selon l'invention, contenant une préparation antihistaminique (la diphénylhydramine). Le support selon l'invention se composait de 56 à 63 % en masse de fer et de carbone pour le reste; la teneur en diphénylhydramine adsorbée était de 3 % en masse.
Des essais comparatifs de l'activitié anti-oedémique ont été effectués en la comparant à celle de la diphénylhydramine injectée sous forme de solution ordinaire.
Les sujets des essais étaient 30 rats mâles de la population Vistar d'un poids allant de 180 à 220 g. Pour obtenir un oedème expérimental, on a injecté par voie subplantaire au milieu de la queue de 10 rats, 0,1 ml de solution aqueuse de dextrane à 4 %. Un aimant permanent de samarium-cobalt (6000 Oe) a été fixé à cet endroit et on a injecté aussitôt lentement dans la veine caudale 20 mg de support, selon l'invention, contenant 0,6 mg de diphénylhydramine en 0,7 ml de solution de gélatinol à 8 % pour injections (dose moyenne en calculant en diphénylhydramine : 3 mg/kg). La localisation de la dispersion dans le canal vasculaire a été contrôlée par radiographie. Chez 10 rats on a injecté de la même façon la solution de dextrane et on a injecté aussitôt dans la veine caudale la solution de diphénylhydramine (dose : 20 mg/kg, soit en moyenne 5 mg par rat) en 0,7 ml de solution de gélatinol à 8 % pour injections. […]

Regarding `CC(=O)[C@]1(O)Cc2c(O)c3c(c(O)c2[C@@H](O[C@H]2C[C@H](N)[C@H](O)[C@H](C)O2)C1)C(=O)c1c(O)cccc1C3=O` [carminomicyne], in data set [1], the “régression complète de la tumeur” value is given as “en aucun cas”; the “durée de vie, augmentation par rapport au groupe témoin (sans antibiotiques)” value is on record as 15-30%; the “examens histologiques de divers tissus, surtout du tissu hépatique” value was “altérations cytotoxiques graves”; the hémopoïèse result is given as “oppression de l'hémopoïèse”.
In the case of `COc1cccc2c1C(=O)c1c(O)c3c(c(O)c1C2=O)C[C@@](O)(C(C)=O)C[C@@H]3O[C@H]1C[C@H](N)[C@H](O)[C@H](C)O1` [daunorubicyne], in data set [1], the “régression complète de la tumeur” value was “en aucun cas”; the “durée de vie, augmentation par rapport au groupe témoin (sans antibiotiques)” value is on record as 15-30%; the “examens histologiques de divers tissus, surtout du tissu hépatique” value is recorded as “altérations cytotoxiques graves”; the hémopoïèse result is listed as “oppression de l'hémopoïèse”.
Take `CN(C)CCOC(c1ccccc1)c1ccccc1` [diphénylhydramine]: in data set [2], the “augmentation du volume de la queue” value is listed as 1025±41 mm³ and the “augmentation du volume de la queue plus faible que dans le groupe témoin” value came to 33±2%.

For the origin of these results see patent EP0451299B1, “MAGNETOCONTROLLABLE CARRIER WITH PHYSIOLOGICALLY ACTIVE SUBSTANCE AND METHOD FOR MAKING SAID CARRIER” (KHOLODOV, Leonid Efimovich, priority 1989, dated 1991).
